This note sets out measurements from PubChem BioAssay (NCI).

Test systems include 786-0 renal; A498 renal; A549 NSCLC; HL-60(TB) leukemia; SK-MEL-5 melanoma; SW-620 colon; UACC-257 melanoma; CAKI-1 renal; MDA-MB-435.
Holding throughout (assay): DTP human tumour cell line panel, 48 h

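Exposure lasted 48 hours, with cells grown in 96-well plates and compounds tested at five concentrations. Here, GI50 denotes the concentration required for 50% inhibition of growth. TGI marks complete inhibition of growth.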

Turning to `O=C1N/C(=C\[N+](=O)[O-])c2ccccc21`, the TGI in the assay on 786-0 renal, in the assay on A498 renal, with A549 NSCLC, in the assay on HL-60(TB) leukemia, with SK-MEL-5 melanoma and in the assay with SW-620 colon was > 100 µM in each case. The TGI in the assay with UACC-257 melanoma was > 100 µM.

Turning to `O=C(Nc1cccc(O)c1)C(=O)C1C(=O)NC(=S)NC1=O`, the TGI with 786-0 renal, in the assay on A498 renal, with A549 NSCLC, with CAKI-1 renal, with HL-60(TB) leukemia and with SK-MEL-5 melanoma was > 100 µM in each case. The TGI in the assay with SW-620 colon and in the assay with UACC-257 melanoma was > 100 µM in each case.

On to `CCN(CC)CCNC(Cc1ccccc1)c1ccc(OCc2ccccc2)cc1` (configuration not stated), for which the GI50 in the assay on 786-0 renal was 3.61 µM; in the assay with A498 renal, 2.02 µM; in the assay with A549 NSCLC, 7.74 µM; in the assay on CAKI-1 renal, 4.52 µM; with HL-60(TB) leukemia, 2.77 µM; in the assay on MDA-MB-435 it was 3.16 µM. The values for the GI50 with SK-MEL-5 melanoma, with SW-620 colon and with UACC-257 melanoma were 1.97 µM, 5.53 µM and 2.13 µM, respectively. For the same molecule, the TGI in the assay with 786-0 renal was 17.9 µM; in the assay with A498 renal, 7.94 µM; with A549 NSCLC, 22 µM; in the assay with CAKI-1 renal, 16.7 µM; with HL-60(TB) leukemia, 7.79 µM; in the assay with MDA-MB-435, 11 µM. In addition, the TGI with SK-MEL-5 melanoma was determined as 4.46 µM; with SW-620 colon it was 20 µM; with UACC-257 melanoma it was 4.85 µM.

Take `CCC1=CCN(c2cc(C)ccn2)OC1c1ccc(OC)cc1` (configuration not stated): the TGI in the assay with 786-0 renal is > 100 µM; with A549 NSCLC it was > 100 µM; in the assay on CAKI-1 renal it was > 100 µM; in the assay on HL-60(TB) leukemia it was 50.6 µM; with SK-MEL-5 melanoma, 30.5 µM; with SW-620 colon, > 100 µM. In addition, the TGI in the assay with UACC-257 melanoma turned out to be 86.1 µM.

`COc1ccc2c(c1)C(=O)CCc1cc(OC)c(OC)c(OC)c1-2`: the GI50 in the assay with 786-0 renal, with A549 NSCLC, in the assay with CAKI-1 renal and in the assay on SW-620 colon was < 0.01 µM in each case. The TGI in the assay with 786-0 renal is > 100 µM; in the assay on A549 NSCLC, > 100 µM; in the assay with CAKI-1 renal, > 100 µM; in the assay with MDA-MB-435, 0.0717 µM; with SW-620 colon it was > 100 µM; in the assay on UACC-257 melanoma, > 100 µM.

In the case of `O=C(Nc1ccc(C(F)(F)F)cc1[N+](=O)[O-])C(=O)C1NC(=S)NC1=O` (configuration not stated), the TGI in the assay with 786-0 renal, in the assay with A498 renal, in the assay on A549 NSCLC, in the assay with CAKI-1 renal, with HL-60(TB) leukemia and in the assay with SK-MEL-5 melanoma was > 100 µM each time. Moreover, the TGI in the assay with SW-620 colon and in the assay on UACC-257 melanoma was > 100 µM throughout.

As for `NC(CCCC(N)P(=O)(O)O)P(=O)(O)O` (configuration not stated), the TGI with 786-0 renal, with A498 renal, with A549 NSCLC, in the assay on CAKI-1 renal, in the assay with SK-MEL-5 melanoma and with SW-620 colon was > 100 µM throughout. For the same molecule, the TGI with UACC-257 melanoma was > 100 µM.

In the case of `CC(=O)Oc1cc2c(cc1OC(C)=O)C1(C)CCC2(C)c2cc(OC(C)=O)c(OC(C)=O)cc21`, the TGI was > 100 µM in the assay on 786-0 renal; > 100 µM in the assay on A549 NSCLC; 90.5 µM with CAKI-1 renal; 19.9 µM with HL-60(TB) leukemia; 54.7 µM in the assay on SK-MEL-5 melanoma; 63.4 µM in the assay with SW-620 colon. In the assay with UACC-257 melanoma, this molecule displayed a TGI of 40.4 µM.

Take `CC(=O)c1ccc(NC(=O)/C(CC(=O)c2sc(-c3cccnc3)nc2C)=N/NC(N)=O)cc1`: the TGI is 83.8 µM with 786-0 renal; > 100 µM with A498 renal; 71.2 µM in the assay with A549 NSCLC; 86 µM with CAKI-1 renal; 72.9 µM in the assay with HL-60(TB) leukemia; > 100 µM in the assay with SK-MEL-5 melanoma. Also, in the assay with SW-620 colon, the TGI is > 100 µM.

Consider `COc1ccc(NC(=O)CC/C(CC(=O)c2ccco2)=N/NC(=O)C(N)=O)cc1`, for which the TGI in the assay with 786-0 renal, in the assay with A498 renal, with A549 NSCLC, with CAKI-1 renal, with HL-60(TB) leukemia and with SK-MEL-5 melanoma was > 100 µM each time. The TGI with SW-620 colon and with UACC-257 melanoma was > 100 µM in each case.

Turning to `O=S(=O)(C1=CC(S(=O)(=O)c2ccccc2)CN(Cc2ccccc2)C1c1cccc2ccccc12)c1ccccc1` (configuration not stated), the TGI in the assay with 786-0 renal, in the assay on A498 renal, in the assay with A549 NSCLC, in the assay on CAKI-1 renal, in the assay with HL-60(TB) leukemia and with SK-MEL-5 melanoma was > 69 µM each time. In addition, the TGI with SW-620 colon and in the assay on UACC-257 melanoma was > 69 µM in each case.

Take `CC(=O)Oc1c(C)c(-c2ccccc2)c(C)c(-c2ccccc2)c1C(=S)c1ccccc1`: the TGI with 786-0 renal, in the assay on A498 renal, in the assay on A549 NSCLC, with HL-60(TB) leukemia, with SK-MEL-5 melanoma and with UACC-257 melanoma was > 100 µM throughout.

Regarding `C=CC[P@]1(=O)O[C@H](c2ccccc2)[C@H](C)N1C`, the TGI with 786-0 renal, with A498 renal, in the assay with A549 NSCLC, with HL-60(TB) leukemia, with SK-MEL-5 melanoma and with SW-620 colon was > 100 µM in each case.

Take `COc1ccc(C=O)cc1O[Si](C)(C)C(C)(C)C`: the TGI in the assay on 786-0 renal, with A498 renal, in the assay with A549 NSCLC, with CAKI-1 renal, in the assay with HL-60(TB) leukemia and with SK-MEL-5 melanoma was > 100 µM throughout. For the same molecule, the TGI in the assay with SW-620 colon and in the assay with UACC-257 melanoma was > 100 µM throughout.

For `CC1(O)C(C)(O)C2(C)O[Te]3(OC12C)OC1(C)C(C)(O)C(C)(O)C1(C)O3` (configuration not stated), the TGI is > 100 µM in the assay on 786-0 renal; 79 µM in the assay with A549 NSCLC; 31.5 µM in the assay on HL-60(TB) leukemia; 32.7 µM in the assay with SK-MEL-5 melanoma; > 100 µM in the assay on UACC-257 melanoma.

Take `O=C(Nc1ccc(Cl)cc1)C1C(=O)C(=O)N(c2ccc(Cl)cc2)C1=O` (configuration not stated): the TGI in the assay on 786-0 renal, in the assay with A498 renal, with A549 NSCLC, in the assay with CAKI-1 renal, in the assay on HL-60(TB) leukemia and in the assay with SK-MEL-5 melanoma was > 100 µM each time. Moreover, the TGI with SW-620 colon is > 100 µM.

What is called TGI is the concentration giving total growth inhibition. A high value points to lower sensitivity of the cells. In general, GI50 refers to the concentration that inhibits growth by half.
